US6358885B1, “Substituted phenylheterocyclic herbicides” (Mississippi State University, priority 1992, dated 2002)

How the values were obtained:
wild buckwheat = test: Test C preemergence/postemergence greenhouse plant response rating 0 to 100; type: in vivo, Polygonum convolvulus; details: POSTEMERGENCE; for Plant response rating, Wild buckwheat: 0 to 100 scale
Summary of the method: (§1)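 Compounds in non-phytotoxic solvent applied preemergence to sandy loam one day after planting, postemergence at the 1–4 leaf stage, or to ~2.5 cm floodwater over silt loam.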

barnyardgrass = test: Test C flood test plant response rating 0 to 100; type: in vivo, Echinochloa crus-galli; details: for Plant response rating Barnyardgrass 2: flood test species listed under POSTEMERGENCE, 0 to 100 scale
Summary of the method: as §1

wheat [1] = test: Test B preemergence/postemergence greenhouse plant response rating 0 to 10; type: in vivo, Triticum aestivum; details: 0 to 10 scale
Summary of the method: (§2)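 Test chemicals, dissolved in a non-phytotoxic solvent, were applied to soil at planting and, at the same time, over foliage of seedlings at the one to four leaf stage.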

wild oat = test: as above; type: in vivo, Avena fatua; details: 0 to 10 scale
Summary of the method: as §2

duck salad = test: Test C flood test plant response rating 0 to 100; type: in vivo, Heteranthera limosa; details: for Plant response rating Duck salad: flood test species listed under POSTEMERGENCE, 0 to 100 scale
Summary of the method: as §1

purple nutsedge = test: Test B preemergence/postemergence greenhouse plant response rating 0 to 10; type: in vivo, Cyperus rotundus; details: 0 to 10 scale
Summary of the method: as §2

crabgrass = test: as above; type: in vivo, Digitaria spp.; details: 0 to 10 scale
Summary of the method: as §2

velvetleaf = test: Test C preemergence/postemergence greenhouse plant response rating 0 to 100; type: in vivo, Abutilon theophrasti; details: POSTEMERGENCE; for Plant response rating, Velvetleaf: 0 to 100 scale
Summary of the method: as §1

rice = test: Test B preemergence/postemergence greenhouse plant response rating 0 to 10; type: in vivo, Oryza sativa; details: 0 to 10 scale
Summary of the method: as §2

cotton [2] = test: Test C preemergence/postemergence greenhouse plant response rating 0 to 100; type: in vivo, Gossypium hirsutum; details: POSTEMERGENCE; for Plant response rating, Cotton: 0 to 100 scale
Summary of the method: as §1

sugar beet = test: Test B preemergence/postemergence greenhouse plant response rating 0 to 10; type: in vivo, Beta vulgaris; details: 0 to 10 scale
Summary of the method: as §2

pigweed = test: Test C preemergence/postemergence greenhouse plant response rating 0 to 100; type: in vivo, Amaranthusretroflexus; details: POSTEMERGENCE; for Plant response rating Pigweed: 0 to 100 scale
Summary of the method: as §1

corn = test: Test B preemergence/postemergence greenhouse plant response rating 0 to 10; type: in vivo, Zea mays; details: 0 to 10 scale
Summary of the method: as §2

cotton [3] = test: as above; type: in vivo, Gossypium hirsutum; details: 0 to 10 scale
Summary of the method: as §2

sorghum = test: as above; type: in vivo, Sorghum bicolor; details: 0 to 10 scale
Summary of the method: as §2

wheat [4] = test: Test C preemergence/postemergence greenhouse plant response rating 0 to 100; type: in vivo, Triticum aestivum; details: POSTEMERGENCE; for Plant response rating, Wheat: 0 to 100 scale
Summary of the method: as §1

blackgrass = test: Test B preemergence/postemergence greenhouse plant response rating 0 to 10; type: in vivo, Alopecurus myosuroides; details: 0 to 10 scale
Summary of the method: as §2

lambsquarters = test: Test C preemergence/postemergence greenhouse plant response rating 0 to 100; type: in vivo, Chenopodium album; details: POSTEMERGENCE; for Plant response rating Lambsquarters: 0 to 100 scale
Summary of the method: as §1

[5] = POSTEMERGENCE section, flood test, Rate 4 g/ha
[6] = Rate 16 g/ha, under POSTEMERGENCE head (flood test species)

CCC(C)Oc1cc(-c2nn3c(c2Cl)CCCC3)c(F)cc1Cl (centres unmarked) [Compound 48]
Plant response rating, Wild buckwheat (wild buckwheat; 62 g/ha): 100 | Plant response rating, Wild buckwheat (wild buckwheat; 250 g/ha): 100 | Plant response rating (0 to 100), Wild buckwheat (wild buckwheat; Rate 4 g/ha): 60 | Plant response rating (0 to 100), Wild buckwheat (wild buckwheat; Rate 16 g/ha): 85 | Plant response rating (0 to 100), Barnyardgrass 2 (barnyardgrass; [5]): 20 | Plant response rating (0 to 100), Barnyardgrass 2 (barnyardgrass; [6]): 40 | Plant response rating Barnyardgrass 2 (barnyardgrass; 62 g/ha): 95 | Plant response rating Barnyardgrass 2 (barnyardgrass; 250 g/ha): 100 | Plant response rating, Wheat (wheat [1]; POSTEMERGENCE, Rate 50 g/ha): 5 | Plant response rating, Wheat (wheat [1]; PREEMERGENCE, Rate 50 g/ha): 0 | Plant response rating, Wheat (wheat [1]; Rate 200 g/ha, POSTEMERGENCE): 6 | Plant response rating, Wheat (wheat [1]; Rate 200 g/ha, PREEMERGENCE): 2 | Plant response rating, Wild oat (wild oat; POSTEMERGENCE, Rate 50 g/ha): 4 | Plant response rating, Wild oat (wild oat; PREEMERGENCE, Rate 50 g/ha): 0 | Plant response rating, Wild oat (wild oat; Rate 200 g/ha, POSTEMERGENCE): 6 | Plant response rating (0 to 100), Duck salad (duck salad; [5]): 0 | Plant response rating (0 to 100), Duck salad (duck salad; [6]): 10 | Plant response rating Duck salad (duck salad; 62 g/ha): 60 | Plant response rating Duck salad (duck salad; 250 g/ha): 80 | Plant response rating, Nutsedge (purple nutsedge; POSTEMERGENCE, Rate 50 g/ha): 4 | Plant response rating, Nutsedge (purple nutsedge; PREEMERGENCE, Rate 50 g/ha): 0 | Plant response rating, Nutsedge (purple nutsedge; Rate 200 g/ha, POSTEMERGENCE): 5 | Plant response rating, Nutsedge (purple nutsedge; Rate 200 g/ha, PREEMERGENCE): 0 | Plant response rating, Crabgrass (crabgrass; POSTEMERGENCE, Rate 50 g/ha): 8 | Plant response rating, Crabgrass (crabgrass; POSTEMERGENCE, Rate 200 g/ha): 9 | Plant response rating, Crabgrass (crabgrass; PREEMERGENCE, Rate 50 g/ha): 2 | Plant response rating, Crabgrass (crabgrass; Rate 200 g/ha, PREEMERGENCE): 9 | Plant response rating, Velvetleaf (velvetleaf; 62 g/ha): 90 | Plant response rating, Velvetleaf (velvetleaf; 250 g/ha): 90 | Plant response rating (0 to 100), Velvetleaf (velvetleaf; Rate 4 g/ha): 30 | Plant response rating (0 to 100), Velvetleaf (velvetleaf; Rate 16 g/ha): 80 | Plant response rating, Rice (rice; POSTEMERGENCE, Rate 50 g/ha): 3 | Plant response rating, Rice (rice; PREEMERGENCE, Rate 50 g/ha): 1 | Plant response rating, Rice (rice; Rate 200 g/ha, POSTEMERGENCE): 8 | Plant response rating, Rice (rice; Rate 200 g/ha, PREEMERGENCE): 2 | Plant response rating, Cotton (cotton [2]; 62 g/ha): 100 | Plant response rating, Cotton (cotton [2]; 250 g/ha): 100 | Plant response rating (0 to 100), Cotton (cotton [2]; Rate 4 g/ha): 90 | Plant response rating (0 to 100), Cotton (cotton [2]; Rate 16 g/ha): 100 | Plant response rating, Sugar beet (sugar beet; POSTEMERGENCE, Rate 50 g/ha): 10 | Plant response rating, Sugar beet (sugar beet; PREEMERGENCE, Rate 50 g/ha): 9 | Plant response rating, Sugar beet (sugar beet; Rate 200 g/ha, POSTEMERGENCE): 10 | Plant response rating, Sugar beet (sugar beet; Rate 200 g/ha, PREEMERGENCE): 10 | Plant response rating Pigweed (pigweed; 62 g/ha): 100 | Plant response rating Pigweed (pigweed; 250 g/ha): 100 | Plant response rating (0 to 100), Pigweed (pigweed; Rate 4 g/ha): 80 | Plant response rating (0 to 100), Pigweed (pigweed; Rate 16 g/ha): 90 | Plant response rating, Corn (corn; POSTEMERGENCE, Rate 50 g/ha): 3 | Plant response rating, Corn (corn; POSTEMERGENCE, Rate 200 g/ha): 3 | Plant response rating, Corn (corn; PREEMERGENCE, Rate 50 g/ha): 0 | Plant response rating, Corn (corn; Rate 200 g/ha, PREEMERGENCE): 1 | Plant response rating, Cotton (cotton [3]; POSTEMERGENCE, Rate 50 g/ha): 10 | Plant response rating, Cotton (cotton [3]; POSTEMERGENCE, Rate 200 g/ha): 10 | Plant response rating, Cotton (cotton [3]; PREEMERGENCE, Rate 50 g/ha): 0 | Plant response rating, Cotton (cotton [3]; Rate 200 g/ha, PREEMERGENCE): 9 | Plant response rating, Sorghum (sorghum; POSTEMERGENCE, Rate 50 g/ha): 4 | Plant response rating, Sorghum (sorghum; PREEMERGENCE, Rate 50 g/ha): 0 | Plant response rating, Sorghum (sorghum; Rate 200 g/ha, POSTEMERGENCE): 6 | Plant response rating, Sorghum (sorghum; Rate 200 g/ha, PREEMERGENCE): 1 | Plant response rating, Wheat (wheat [4]; 62 g/ha): 30 | Plant response rating, Wheat (wheat [4]; 250 g/ha): 50 | Plant response rating (0 to 100), Wheat (wheat [4]; Rate 4 g/ha): 10 | Plant response rating (0 to 100), Wheat (wheat [4]; Rate 16 g/ha): 20 | Plant response rating, Blackgrass (blackgrass; POSTEMERGENCE, Rate 50 g/ha): 6 | Plant response rating, Blackgrass (blackgrass; POSTEMERGENCE, Rate 200 g/ha): 6 | Plant response rating, Blackgrass (blackgrass; PREEMERGENCE, Rate 50 g/ha): 0 | Plant response rating, Blackgrass (blackgrass; Rate 200 g/ha, PREEMERGENCE): 5 | Plant response rating Lambsquarters (lambsquarters; 62 g/ha): 100 | Plant response rating Lambsquarters (lambsquarters; 250 g/ha): 100 | Plant response rating (0 to 100), Lambsquarters (lambsquarters; Rate 4 g/ha): 60 | Plant response rating (0 to 100), Lambsquarters (lambsquarters; Rate 16 g/ha): 60
